Converted amounts (≈) assume the structure as drawn.
Assays:
[1] = test system: Mycobacterium tuberculosis; assay: microbe, parasite or virus in culture; conditions: H37Rv, 168 h
Description: Antimycobacterial activity against Mycobacterium tuberculosis H37Rv after 7 days by resazurin reduction microplate assay

[2] = Cytotoxicity against African green monkey Vero cells assessed as viability at 10 uM after 72 hrs by MTT assay relative to control; type: cell-based; conditions: chlorocebus sabaeus, read-out: Activity
[3] = Cytotoxicity against human HepG2 cells assessed as viability at 10 uM after 72 hrs by MTT assay relative to control; type: cell-based; conditions: read-out: Activity
[4] = Intrinsic clearance in human liver S9 fraction at 2 uM by HPLC-MS/MS analysis; type: ADME, tissue-based
[5] = Thermodynamic solubility of the compound in 0.1N HCl at pH 1.5 after 24 hrs by HPLC method; type: physicochemical; conditions: read-out: Therm_solubility
[6] = Kinetic solubility in PBS at pH 7.4; type: physicochemical; conditions: read-out: Kinetic_solubility
[7] = Cytotoxicity against mouse RAW264.7 cells assessed as viability at 10 uM after 72 hrs by MTT assay relative to control; type: cell-based; conditions: read-out: Activity
[8] = Cytotoxicity against human HaCaT cells assessed as viability at 10 uM after 72 hrs by MTT assay relative to control; type: cell-based; conditions: read-out: Activity
[9] = Kinetic solubility in water at pH 5.8; type: physicochemical; conditions: read-out: Kinetic_solubility
[10] = test system: Mycobacterium tuberculosis; assay: microbe, parasite or virus in culture; conditions: CDCT-4 (1105/09), 168 h
Description: Antimycobacterial activity against Mycobacterium tuberculosis CDCT-4 (1105/09) clinical isolate after 7 days by resazurin reduction microplate assay

[11] = Half life in human liver S9 fraction at 2 uM by HPLC-MS/MS analysis; type: ADME, tissue-based
[12] = Permeability of the compound at 1 uM […] by PAMPA; type: physicochemical; conditions: read-out: permeability
[13] = Cytotoxicity against mouse N9 cells assessed as viability at 10 uM after 72 hrs by MTT assay relative to control; type: cell-based; conditions: read-out: Activity
[14] = test system: Mycobacterium tuberculosis; assay: microbe, parasite or virus in culture; conditions: PE-003, 168 h
Description: Antimycobacterial activity against Mycobacterium tuberculosis PE-003 clinical isolate after 7 days by resazurin reduction microplate assay

[15] = test system: Mycobacterium tuberculosis; assay: Bactericidal activity against Mycobacterium tuberculosis H37Rv infected in mouse RAW264.7 cells assessed as bacterial colony formation at 5 uM after 5 days (reference value: 4.1 to 4.73 log10CU); type: functional
[16] = Thermodynamic solubility of the compound in acetate buffer at pH 4 after 24 hrs by HPLC method; type: physicochemical; conditions: read-out: Therm_solubility

## COc1ccc2nc(C)cc(OCC(=O)N[C@H]3CCCc4ccccc43)c2c1
[1]
  MIC: 1.66 µM

## COc1ccccc1NC(=O)COc1cc(C)nc2ccc(Cl)cc12
[1]
  MIC: 1.75 µM

## COc1ccc2nc(C)c(Cc3ccccc3)c(OCC(=O)Nc3ccccc3OC)c2c1
[1]
  MIC: > 22.6 µM

## CCc1cc(OCC(=O)Nc2ccccc2OC)c2cc(OC)ccc2n1
[1]
  MIC: 0.86 µM

## COc1ccc2nc(C)cc(OCC(=O)N(c3ccccc3)c3ccccc3)c2c1
[1]
  MIC: > 25.1 µM

## COc1ccc2nc(C)cc(OCC(=O)Nc3ccc(C)c(C)c3)c2c1
[2]
  viability at 72 h, 10 µM: 85%
[3]
  viability at 72 h, 10 µM: 71%
[1]
  MIC: 0.11 µM
[4]
  CLhep predicted at 2 µM: 16.2 mL/min/kg
[5]
  solubility thermodynamic at 24 h: 80 µM (≈ 28 µg/mL)
[6]
  solubility kinetic: 10.7 µM (≈ 3.75 µg/mL)
[7]
  viability at 72 h, 10 µM: 88%
[8]
  viability at 72 h, 10 µM: 94%
[9]
  solubility kinetic: 10.4 µM (≈ 3.64 µg/mL)
[10]
  MIC: 0.11 µM (≈ 0.0385 µg/mL)
[11]
  half-life at 2 µM: 14.2 min
[12]
  Papp at 1 µM: 5.9 ×10⁻⁶ cm/s
[13]
  viability at 72 h, 10 µM: 105%
[14]
  MIC: 0.04 µM (≈ 0.014 µg/mL)
[15]
  Activity: 3.35 log10CFU
[16]
  solubility thermodynamic at 24 h: 410 µM (≈ 144 µg/mL)

## CCc1ccc(NC(=O)COc2cc(C)nc3ccc(OC)cc23)cc1
[2]
  viability at 72 h, 10 µM: 80%
[3]
  viability at 72 h, 10 µM: 75%
[1]
  MIC: 0.06 µM
[4]
  CLhep predicted at 2 µM: 16.6 mL/min/kg
[5]
  solubility thermodynamic at 24 h: 790 µM (≈ 277 µg/mL)
[6]
  solubility kinetic: 3.8 µM (≈ 1.33 µg/mL)
[7]
  viability at 72 h, 10 µM: 91%
[8]
  viability at 72 h, 10 µM: 96%
[9]
  solubility kinetic: 5.2 µM (≈ 1.82 µg/mL)
[10]
  MIC: < 0.06 µM
[11]
  half-life at 2 µM: 12.8 min
[13]
  viability at 72 h, 10 µM: 112%
[14]
  MIC: 0.006 µM (≈ 0.0021 µg/mL)
[15]
  Activity: 2.81 log10CFU
[16]
  solubility thermodynamic at 24 h: 430 µM (≈ 151 µg/mL)

## COc1ccc2nc(C)cc(OCC(=O)Nc3ccc4c(c3)CCC4)c2c1
[2]
  viability at 72 h, 10 µM: 97%
[3]
  viability at 72 h, 10 µM: 95%
[1]
  MIC: 0.05 µM
[4]
  CLhep predicted at 2 µM: 16.9 mL/min/kg
[5]
  solubility thermodynamic at 24 h: 240 µM (≈ 87 µg/mL)
[6]
  solubility kinetic: 2.8 µM (≈ 1.01 µg/mL)
[7]
  viability at 72 h, 10 µM: 88%
[8]
  viability at 72 h, 10 µM: 99%
[9]
  solubility kinetic: 2.8 µM (≈ 1.01 µg/mL)
[10]
  MIC: < 0.05 µM
[11]
  half-life at 2 µM: 11.7 min
[12]
  Papp at 1 µM: 13.1 ×10⁻⁶ cm/s
[13]
  viability at 72 h, 10 µM: 111%
[14]
  MIC: 0.005 µM (≈ 0.00181 µg/mL)
[15]
  Activity: 3.54 log10CFU
[16]
  solubility thermodynamic at 24 h: 120 µM (≈ 43.5 µg/mL)

## COc1ccc2nc(C)cc(OCc3ccc4ccccc4c3)c2c1
[1]
  MIC: 1.9 µM

## COc1ccc2nc(C)cc(OCC(=O)Nc3cccc4c3CCCC4)c2c1
[1]
  MIC: 0.83 µM

## CC[C@@H](CO)NCCN[C@@H](CC)CO [ETHAMBUTOL]
[1]
  MIC: 2.5 to 5 µg/mL

## CCc1cc(C(N)=S)ccn1 [ETHIONAMIDE]
[1]
  MIC: 2.5 µg/mL
[10]
  MIC: 11.3 µM (≈ 1.88 µg/mL)
[14]
  MIC: 61.2 µM (≈ 10.2 µg/mL)

## NNC(=O)c1ccncc1 [ISONIAZID]
[1]
  MIC: 0.16 to 1.46 µM
[10]
  MIC: > 70 µM
[14]
  MIC: > 70 µM
[15]
  Activity: 2.44 log10CFU

## COc1c(N2C[C@@H]3CCCN[C@@H]3C2)c(F)cc2c(=O)c(C(=O)O)cn(C3CC3)c12 [MOXIFLOXACIN]
[1]
  MIC: 0.075 µg/mL

## CO[C@H]1/C=C/O[C@@]2(C)Oc3c(C)c(O)c4c(O)c(c(/C=N/N5CCN(C)CC5)c(O)c4c3C2=O)NC(=O)/C(C)=C\C=C\[C@H](C)[C@H](O)[C@@H](C)[C@@H](O)[C@@H](C)[C@H](OC(C)=O)[C@@H]1C [RIFAMPIN]
[1]
  MIC: 0.038 µg/mL
[10]
  MIC: > 100 µM
[15]
  Activity: 2.44 log10CFU

## CN[C@@H]1[C@H](O[C@H]2[C@H](O[C@H]3[C@H](O)[C@@H](O)[C@H](N=C(N)N)[C@@H](O)[C@@H]3N=C(N)N)O[C@@H](C)[C@]2(O)C=O)O[C@@H](CO)[C@H](O)[C@H]1O [STREPTOMYCIN]
[1]
  MIC: 0.31 µg/mL

Source: ChEMBL document CHEMBL4002573, “New insights into the SAR and drug combination synergy of 2-(quinolin-4-yloxy)acetamides against Mycobacterium tuberculosis” (Eur J Med Chem, 2017)
